From patent US11759451B2, “Therapeutic potential of glycopyrrolate and mexiletine for nervous system injury” (City University of Hong Kong, priority 2020, dated 2023)
“Also recorded” adds a separate entry of the source.

Assays:
[1] = test system: axotomized dorsal root ganglion (DRG) neurons; experiment: neurite outgrowth assay in primary cultures of axotomized DRG neurons; assay type: cell-based, adult C57BL/6 mice; conditions: vs 0.1% DMSO solvent control; for average total neurite length (neurite outgrowth): glycopyrrolate 5, 10 and 100 μM or mexiletine 10, 50 and 100 μM added 1 h after plating, 17 h growth; for cell survival of DRG neurons: same cultures, 17 h
Experimental: Primary cultures of DRG neurons were prepared from adult C57BL/6 mice, and plated onto a poly-D-lysine and laminin-coated 8-well chamber. Glycopyrrolate and mexiletine were added into the cultured DRG neurons at various concentrations as indicated one hour after plating. 0.1% DMSO served as solvent control. The cultures were allowed to grow for 17 h. After fixation, the DRG neurons were immunostained with anti-βIII-tubulin primary antibodies highlighting the cell bodies of DRG neurons and their adjacent neurites for neurite outgrowth assay. (A) Average total neurite length was quantified using automated WIS-NeuroMath 5 software. […] Scale bar: 500 μm.
In the current study, the intrinsic growth capacity of peripheral neurons was first assessed, which is a critical determinant for successful axon regeneration after injury, after treating the neurons with glycopyrrolate and mexiletine. Primary culture of adult dorsal root ganglion (DRG) neurons is a widely used in vitro models to assess cues that could promote axonal outgrowth. Primary DRG neurons were prepared from adult C57BL/6 mice (8-12 weeks old). DRG neurons were dissected out, mildly digested with a solution of collagenase and dispase II (Roche Diagnostics), trypsinized and mechanically dissociated into single cell suspension using flame-polished Pasteur pipettes with three different diameters. Two thousand DRG neurons were plated onto an 8-well chamber slide pre-coated with poly-D-lysine and laminin (Sigma Aldrich), and cultured in full Neurobasal medium (Gibco) supplemented with B27, 200 mM L-glutamine, penicillin-streptomycin, 50 ng/ml NGF (Gibco), 10 μM Ara-C and 2 ng/ml GDNF (Gibco). Glycopyrrolate (5, 10 and 100 μM) or mexiletine (10, 50 and 100 μM) was added into the cultured neurons 1 hour after plating, and the cultures were allowed to grow for 17 hours.
After 17 hours of incubation, the cultures were fixed with 4% paraformaldehyde (PFA), blocked with 0.5% bovine serum albumin (BSA)/0.1% Triton X-100 in PBS for 1 hour at room temperature, and incubated with anti-β III-tubulin primary antibodies (1:800, Sigma Aldrich) for overnight at 4° C. After washing with PBS, the cultures were incubated with Alexa Fluor 488-conjugated secondary antibodies (1:300, Molecular Probes) for 1 hour at room temperature. To assess the neurite outgrowth of axtomized DRG neurons after treatment of glycopyrrolate or mexiletine, 30 non-overlapping images were taken at 10× magnifications using Nikon Ni-E microscope equipped with a motorized stage. Total neurite length of individual DRG neurons from each treatment condition were measured by automated WIS-NeuroMath software (Weizmann Institute of Science). The total neurite length of the neurons was averaged from at least 250 neurons per condition. […]

[2] = test system: sciatic nerve crush injury; conditions: 72 hours after crush; for increase in number of GAP43-positive regenerating axons: i.p. glycopyrrolate 2 mg/kg or mexiletine 10 mg/kg for 3 days, 4 mm distal to the crushed site, n=3 per group; for GAP-43-positive regenerating axonal fibres at 4 mm distal to the crushed site, in words: i.p. glycopyrrolate 2 mg/kg or mexiletine 10 mg/kg
Experimental: (§1) (A) Experimental paradigm for sciatic nerve pinch test. Sciatic nerve crush injury was performed on the left sciatic nerve of adult male C57BL/6 mice. We performed nerve pinch test in adult mice injected intraperitoneally with glycopyrrolate (2 mg/kg) or mexiletine (10 mg/kg) for 3 consecutive days after injury. […] Scale bar: 100 μm. Mean±SEM; *P<0.05, Student's t-test.
(§2) In the current project, a sciatic nerve crush injury was used as an in vivo animal model for peripheral nerve injury. Adult male C57BL/6 mice (8-12 weeks old) were used for all experiments. All mouse husbandry and euthanasia were in compliance with the Institutional Animal Care and Use Committee (IACUC) guidelines. Surgical procedures performed were in accordance with protocols approved by the City University of Hong Kong Animal Research Ethics Sub-Committee and Department of Health, Hong Kong SAR. Under anesthesia, the left sciatic nerve was exposed, and crushed with 5/45 smooth forceps (Fine Science Tools) for 15 seconds at the level of external rotator muscles, distal to the sciatic notch after separation from the surrounding connective tissue (FIG. 2).
(§3) Glycopyrrolate or mexiletine was first dissolved in 0.9% saline, and injected intraperitoneally immediately after sciatic nerve crush injury for 3 consecutive days at 2 mg/kg and 10 mg/kg, respectively (FIGS. 3A and B).
(§4) The extent of axon regeneration was evaluated using sciatic nerve pinch test, and verified by quantifications of GAP-43-positive regenerating axonal fibres 72 hours after sciatic nerve crush injury.

[3] = test system: sciatic nerve crush injury; experiment: sciatic nerve pinch test after sciatic nerve crush injury; assay type: in vivo, adult male C57BL/6 mice; conditions: for increase of the most distal axonal regrowth (sciatic nerve pinch test): i.p. glycopyrrolate 2 mg/kg or mexiletine 10 mg/kg for 3 consecutive days after injury, 72 hours after crush, n=5-6 per group; for in vivo axon regeneration after sciatic nerve crush injury (pinch test), in words: i.p. glycopyrrolate 2 mg/kg or mexiletine 10 mg/kg, 3 days after injury
Experimental: as §1, §2, §3, §4
Sciatic nerve pinch test was performed on the ipsilateral nerves 72 hours after sciatic nerve crush injury. The left sciatic nerve was first exposed to mid-thigh level under deep anaesthesia (i.e. 2.5% isoflurane). Under light anaesthesia (i.e. 1% isoflurane), a series of pinches were applied from the most distal part of the nerve (i.e. trifurcation), moving proximally towards the crushed site using smooth forceps (Fine Science Tools). The distance (in mm) representing the extent of axonal regrowth was recorded from the crushed site to the most distal point of the nerve where initial withdrawal response was observed after pinching (FIGS. 4A and C).

[4] = test system: M1-M3 mAChRs; conditions: background description of the drug; cited from earlier work

| SMILES | average total neurite length (neurite outgrowth) [1] | cell survival of DRG neurons [1] | increase in number of GAP43-positive regenerating axons [2] [%] | GAP-43-positive regenerating axonal fibres at 4 mm distal to the crushed site, in words [2] | increase of the most distal axonal regrowth (sciatic nerve pinch test) [3] [%] | in vivo axon regeneration after sciatic nerve crush injury (pinch test), in words [3] | selectivity among mAChR subtypes [4] |
| --- | --- | --- | --- | --- | --- | --- | --- |
| Cc1cccc(C)c1OCC(C)N (stereo not shown) [mexiletine] | induced robust neurite extension; also recorded: induce substantial neurite outgrowth | did not exhibit any effects on cell survival; also recorded: without exerting any neuronal survival effects | 67 | More GAP-43-positive regenerating axonal fiber were observed | 59 | markedly accelerated in vivo axon regeneration; also recorded: significantly enhanced axon regeneration | – |
| C[N+]1(C)CCC(OC(=O)C(O)(c2ccccc2)C2CCCC2)C1 (stereo not shown) [glycopyrrolate] | induced robust neurite extension; also recorded: induce substantial neurite outgrowth | did not exhibit any effects on cell survival; also recorded: without exerting any neuronal survival effects | 73 | More GAP-43-positive regenerating axonal fiber were observed | 61 | markedly accelerated in vivo axon regeneration; also recorded: significantly enhanced axon regeneration | no selectivity to M1-M3 mAChRs |
